This is an account of results in ChEMBL document CHEMBL4261617, “Design and synthesis of a novel series of non-nucleoside HIV-1 inhibitors bearing pyrimidine and N-substituted aromatic piperazine” (Bioorg Med Chem Lett, 2018).

Series [1] relates to Human immunodeficiency virus 1. Put plainly: Antiviral activity against wild-type HIV1 3B infected in human MT4 cells assessed as protection against virus-induced cytopathic effect after 4 days by MTT assay. It counts as functional, organism-based. As to conditions: Human immunodeficiency virus 1, 3B, MT4, 96 h. Background: Protection from cytopathic effect is a common read-out in antiviral testing.

A short description of series [2]: Cytotoxicity against human MT4 cells assessed as reduction in cell viability after 4 days by MTT assay. It counts as cell-based.
Series [3] in a line: Selectivity index, ratio of CC50 for human MT4 cells to EC50 for wild-type HIV1 3B infected in human MT4 cells. It counts as toxicity, cell-based. As to conditions: MT4 cells infected with wild-type HIV1 3B, read-out: Ratio CC50/EC50.
Series [4] has as its system Human immunodeficiency virus 2. In words: Antiviral activity against HIV2 ROD infected in human MT4 cells assessed as protection against virus-induced cytopathic effect after 4 days by MTT assay. It counts as functional, organism-based. The following applies: Human immunodeficiency virus 2, ISOLATE ROD, MT4, 96 h.
Series [5] has as its system Human immunodeficiency virus 1. In words: Antiviral activity against HIV1 RES056 harboring K103N/Y181C double mutant infected in human MT4 cells assessed as protection against virus-induced cytopathic effect after 4 days by MTT assay. It counts as functional, organism-based. The following applies: Human immunodeficiency virus 1, RES056, MT4, 96 h.
Series [6] in a line: Solubility of the compound in DMSO at 125 ug/ml. It counts as physicochemical.
In series [7] the target is Human immunodeficiency virus type 1 reverse transcriptase (Human immunodeficiency virus 1, UniProt Q72547). In words: Inhibition of recombinant wild-type HIV1 GST-fused reverse transcriptase p66/p51 RNA-dependent DNA polymerase activity expressed in Escherichia coli assessed as reduction in biotin-dUTP incorporation using poly(rA)/oligo(dT)16 as template/primer after 40 mins by PicoGreen dye based spectrofluorometric analysis.

For orientation: EC50 means the concentration that produces a half-maximal response. In general, CC50 refers to the concentration that lowers cell viability or growth by half. Take `CCOC(=O)c1cnc(N2CCN(Cc3cccc(C#N)c3)CC2)nc1Oc1c(C)cc(-c2ccc(C#N)cc2)cc1C`: the EC50 in series [1] and in series [4] was above 125 µM in each case. For the same molecule, the CC50 at 96 h in series [2] was above 125 µM. In addition, the selectivity ratio in series [3] is 1.

As to `Cc1ccnc2c1NC(=O)c1cccnc1N2C1CC1` [NEVIRAPINE], the results for the EC50 in series [1] and in series [5] were 0.1 µM and above 4 µM, respectively. Besides, in series [2], the CC50 at 96 h was above 4 µM.

Take `CCOC(=O)c1cnc(N2CCN(Cc3cccc(C(F)(F)F)c3)CC2)nc1Oc1c(C)cc(-c2ccc(C#N)cc2)cc1C`: the EC50 in series [1] and in series [4] was above 125 µM in each case. Further, the CC50 at 96 h in series [2] is above 125 µM. For the same molecule, in series [3], the selectivity ratio amounted to 1.

For the molecule `CCOC(=O)c1cnc(N2CCN(Cc3cccc(C(=O)OC)c3)CC2)nc1Oc1c(C)cc(-c2ccc(C#N)cc2)cc1C`, the EC50 in series [1] and in series [4] was above 125 µM in each case. Also, the cytotoxic concentration (CC50) at 96 h in series [2] was above 125 µM. Moreover, in series [3], the selectivity ratio is 1.

Turning to `CCOC(=O)c1cnc(N2CCN(Cc3ccc(C(F)(F)F)cc3)CC2)nc1Oc1c(C)cc(-c2ccc(C#N)cc2)cc1C`, the EC50 in series [1] and in series [4] was above 125 µM in each case. Further, the cytotoxic concentration (CC50) at 96 h in series [2] is above 125 µM. In addition, the selectivity ratio in series [3] was determined as 1.

For the molecule `CCOC(=O)c1cnc(N2CCN(Cc3cccc(OC)c3)CC2)nc1Oc1c(C)cc(-c2ccc(C#N)cc2)cc1C`, the EC50 in series [1] and in series [4] was above 125 µM each time. For the same molecule, in series [2], the CC50 at 96 h is above 125 µM. Moreover, the selectivity ratio in series [3] turned out to be 1.

What is called IC50 is the point on the concentration scale where inhibition reaches its midpoint. As for `CCOC(=O)c1cnc(N2CCN(Cc3cccc([N+](=O)[O-])c3)CC2)nc1Oc1c(C)cc(-c2ccc(C#N)cc2)cc1C`, the half-maximal effective concentration (EC50) in series [1] was 31.5 µM; in series [5], above 125 µM; in series [4] it was above 125 µM. For the same molecule, in series [2], the CC50 at 96 h was above 125 µM. In series [6], the solubility result was “Insoluble”. The IC50 in series [7] was found to be 114 µM. The selectivity ratio in series [3] was above 4.

With `CCOC(=O)c1cnc(N2CCN(Cc3cccc(C(N)=O)c3)CC2)nc1Oc1c(C)cc(-c2ccc(C#N)cc2)cc1C`, the EC50 in series [1] is 3.36 µM; in series [5], above 14.8 µM; in series [4], above 14.8 µM. Also, the CC50 at 96 h in series [2] was determined as 14.8 µM. Also, the solubility result in series [6] is recorded as “Insoluble”. Moreover, in series [7], the IC50 is at least 93.1 µM. The selectivity ratio in series [3] is 4.

Consider `CCOC(=O)c1cnc(N2CCN(Cc3ccc([N+](=O)[O-])cc3)CC2)nc1Oc1c(C)cc(-c2ccc(C#N)cc2)cc1C`, for which the EC50 in series [1] and in series [4] was above 125 µM throughout. Besides, the CC50 at 96 h in series [2] is above 125 µM. In addition, the selectivity ratio in series [3] was determined as 1.

Turning to `CCOC(=O)c1ccc(CN2CCN(c3ncc(C(=O)OCC)c(Oc4c(C)cc(-c5ccc(C#N)cc5)cc4C)n3)CC2)cc1`, the EC50 in series [1] and in series [4] was above 125 µM throughout. In addition, in series [2], the CC50 at 96 h is above 125 µM. Moreover, the selectivity ratio in series [3] stood at 1.

Turning to `CCOC(=O)c1cnc(N2CCN(Cc3ccccc3F)CC2)nc1Oc1c(C)cc(-c2ccc(C#N)cc2)cc1C`, the EC50 in series [1] and in series [4] was above 125 µM each time. Besides, the CC50 at 96 h in series [2] was above 125 µM. Moreover, in series [3], the selectivity ratio amounted to 1.

For the molecule `CCOC(=O)c1cnc(N2CCN(Cc3ccccc3[N+](=O)[O-])CC2)nc1Oc1c(C)cc(-c2ccc(C#N)cc2)cc1C`, the EC50 in series [1] and in series [4] was above 78.7 µM throughout. Besides, the CC50 at 96 h in series [2] is at least 78.7 µM. The selectivity ratio in series [3] is 1.

On to `CCOC(=O)c1cnc(N2CCN(Cc3ccc(F)cc3)CC2)nc1Oc1c(C)cc(-c2ccc(C#N)cc2)cc1C`, for which the EC50 in series [1] was at least 120 µM; in series [5], above 118 µM; in series [4] it was above 118 µM. For the same molecule, the CC50 at 96 h in series [2] is above 118 µM. Moreover, the solubility result in series [6] is on record as “Insoluble”. Further, in series [7], the 50% inhibitory concentration (IC50) was above 120 µM. Further, the selectivity ratio in series [3] was 1.

`CCOC(=O)c1cnc(N2CCN(Cc3cc(F)cc(F)c3)CC2)nc1Oc1c(C)cc(-c2ccc(C#N)cc2)cc1C`: the EC50 in series [1] and in series [4] was above 125 µM throughout. Besides, the CC50 at 96 h in series [2] is above 125 µM. Moreover, the selectivity ratio in series [3] came out at 1.

On to `CCOC(=O)c1cnc(N2CCN(Cc3ccc(S(C)(=O)=O)cc3)CC2)nc1Oc1c(C)cc(-c2ccc(C#N)cc2)cc1C`, for which the 50% effective concentration (EC50) in series [1] and in series [4] was above 125 µM each time. In addition, in series [2], the CC50 at 96 h is above 125 µM. In addition, in series [3], the selectivity ratio turned out to be 1.

Regarding `CCOC(=O)c1cnc(N2CCN(Cc3ccc(C#N)cc3)CC2)nc1Oc1c(C)cc(-c2ccc(C#N)cc2)cc1C`, the EC50 in series [1] and in series [4] was above 125 µM throughout. In series [2], the half-maximal cytotoxic concentration (CC50) at 96 h was above 125 µM. The selectivity ratio in series [3] was 1.

Regarding `CCOC(=O)c1cnc(N2CCN(Cc3ccccc3C#N)CC2)nc1Oc1c(C)cc(-c2ccc(C#N)cc2)cc1C`, the EC50 in series [1] and in series [4] was above 125 µM each time. For the same molecule, the cytotoxic concentration (CC50) at 96 h in series [2] is above 125 µM. Moreover, the selectivity ratio in series [3] was found to be 1.

In the case of `CCOC(=O)c1cnc(N2CCN(Cc3ccc(S(N)(=O)=O)cc3)CC2)nc1Oc1c(C)cc(-c2ccc(C#N)cc2)cc1C`, the figures for the EC50 in series [1], in series [5] and in series [4] were at least 24.9 µM, above 7.93 µM and above 7.93 µM, respectively. Besides, in series [2], the CC50 at 96 h was at least 7.93 µM. Also, the solubility entry in series [6] was “Insoluble”. The IC50 in series [7] amounted to 63.5 µM. Further, the selectivity ratio in series [3] came to 1.

For `CCOC(=O)c1cnc(N2CCN(Cc3ccccc3Br)CC2)nc1Oc1c(C)cc(-c2ccc(C#N)cc2)cc1C`, the EC50 in series [1] and in series [4] was above 125 µM throughout. In series [2], the CC50 at 96 h is above 125 µM. Also, in series [3], the selectivity ratio is 1.

For the molecule `CCOC(=O)c1cnc(N2CCN(Cc3cc(C)cc(C)c3)CC2)nc1Oc1c(C)cc(-c2ccc(C#N)cc2)cc1C`, the EC50 in series [1] and in series [4] was above 125 µM each time. In addition, in series [2], the cytotoxic concentration (CC50) at 96 h was above 125 µM. For the same molecule, in series [3], the selectivity ratio was 1.

As to `Cc1cc(C#N)cc(C)c1Oc1nc(Nc2ccc(C#N)cc2)nc(N)c1Br` [ETRAVIRINE], the EC50 in series [1] was 0.0022 µM; in series [5], 0.015 µM. Also, in series [2], the CC50 at 96 h was above 2 µM.

For `CCOC(=O)c1cnc(N2CCN(Cc3ccccc3C(F)(F)F)CC2)nc1Oc1c(C)cc(-c2ccc(C#N)cc2)cc1C`, the EC50 in series [1] and in series [4] was above 125 µM in each case. In series [2], the cytotoxic concentration (CC50) at 96 h was above 125 µM. Moreover, in series [3], the selectivity ratio is 1.

As for `CCOC(=O)c1cnc(N2CCN(Cc3ccc(Br)cc3)CC2)nc1Oc1c(C)cc(-c2ccc(C#N)cc2)cc1C`, the EC50 in series [1] and in series [4] was above 125 µM throughout. Further, the CC50 at 96 h in series [2] is above 125 µM. The selectivity ratio in series [3] was 1.

As to `CCOC(=O)c1cnc(N2CCN(Cc3ccccc3C(=O)OC)CC2)nc1Oc1c(C)cc(-c2ccc(C#N)cc2)cc1C`, the EC50 in series [1] and in series [4] was above 125 µM throughout. For the same molecule, in series [2], the 50% cytotoxic concentration (CC50) at 96 h was above 125 µM. The selectivity ratio in series [3] was 1.

`CCOC(=O)c1cnc(N2CCN(Cc3ccc(C(=O)OC)cc3)CC2)nc1Oc1c(C)cc(-c2ccc(C#N)cc2)cc1C`: the EC50 in series [1] and in series [4] was above 125 µM each time. Also, in series [2], the CC50 at 96 h is above 125 µM. Moreover, in series [3], the selectivity ratio was found to be 1.

Consider `CCOC(=O)c1cnc(N2CCN(Cc3cccc(F)c3)CC2)nc1Oc1c(C)cc(-c2ccc(C#N)cc2)cc1C`, for which the EC50 in series [1] and in series [4] was above 125 µM in each case. For the same molecule, in series [2], the CC50 at 96 h was above 125 µM. Besides, the selectivity ratio in series [3] is 1.

As to `CCOC(=O)c1cnc(N2CCN(Cc3ccc(C(N)=O)cc3)CC2)nc1Oc1c(C)cc(-c2ccc(C#N)cc2)cc1C`, the concentration giving a half-maximal response (EC50) in series [1], in series [5] and in series [4] was above 66.5 µM throughout. The cytotoxic concentration (CC50) at 96 h in series [2] was 66.5 µM. The solubility result in series [6] is given as “Insoluble”. In addition, the concentration for half-maximal inhibition (IC50) in series [7] is at least 113 µM. For the same molecule, in series [3], the selectivity ratio is below 1.

On to `CCOC(=O)c1cnc(N2CCN(Cc3cccc(Br)c3)CC2)nc1Oc1c(C)cc(-c2ccc(C#N)cc2)cc1C`, for which the EC50 in series [1] and in series [4] was above 125 µM throughout. For the same molecule, the CC50 at 96 h in series [2] was above 125 µM. For the same molecule, the selectivity ratio in series [3] was 1.
